Laboratory results published in US20260198495A1, “BINARY INSECTICIDE COMPOSITION AND USE THEREOF” (SHENYANG SINOCHEM AGROCHEMICALS R & D CO., LTD., priority 2022, published 2026).
Converted amounts (≈) assume the structure as drawn.

Key:
Assay type in all cases: in vivo
[1] = system: Bemisia tabaci (Gennadius) nymphs; assay: Joint toxicity of I-72 + bifenthrin, Example 40, Table 40; settings: in Gossypium hirsutum, 96 h
Procedure: Test target: Bemisia tabaci (Gennadius) nymphs, a sensitive strain reared indoors.
(§1) Preparation of the pesticide solution: according to different test requirements, the test samples were accurately weighed respectively with an electronic analytical balance. The technical pesticides were dissolved in acetone, and then diluted with 0.1% Tween 80 water into a series of pesticide solutions with a certain concentration gradient according to the experimental design dosage.
(§2) Experimental method: first, cotton leaves with neat and consistent Bemisia tabaci (Gennadius) nymphs were selected and made into leaf disks, with about 20 insects on each leaf disk. Then, they were evenly sprayed with the pesticide solution in the order from low dosage to high dosage according to the experimental design, with 1.5 mL for each leaf and 3 replicates for each treatment. In addition, a blank control was set up.
(§3) The treated test materials were placed in an observation room, and the temperature, humidity and illumination of the observation room could be adjusted as needed. The number of dead and live insects was investigated 96 hours later. […] Then, the co-toxicity coefficient of each ratio was calculated using the Sun Y-P method to evaluate the mixing effect (the same as in Example 1).

[2] = system: 3rd-instar larvae of Ostrinia furnacalis Guenee; assay: Joint toxicity of I-72 + lambda-cyhalothrin, Example 42, Table 42; settings: in Zea mays, 72 h
Procedure: Test target: 3rd-instar larvae of Ostrinia furnacalis Guenee.
as §1
(§4) Experimental method: first, tender corn stems were selected and dipped in the prepared pesticide solution for 10 s in the order from low dosage to high dosage according to the experimental design. After natural air-drying in the shade, they were placed in a 9-cm-diameter Petri dish with filter paper, and uniform and healthy test insects were introduced, with 10 insects for each treatment and 3 replicates for each treatment. In addition, a blank control was set up.
as §3, with “72” for “96”

[3] = system: 2nd-instar larvae of Chilo suppressalis (Walker); assay: Joint toxicity of I-72 + azadirachtin, Example 36, Table 36; settings: in Oryza sativa, 72 h
Description: Test target: 2nd-instar larvae of Chilo suppressalis (Walker). The insect source was collected from Nanchang, Jiangxi Province, and it is the 11th generation continuously cultured indoors, with a relatively high resistance level to amide pesticides such as chlorantraniliprole.
Experimental method: the spraying method was adopted. Rice stalks with the same length and thickness were selected, cut into the same length, and evenly sprayed with the pesticide solution in the order from low dosage to high dosage according to the experimental design, with 1.5 mL of the pesticide solution for each treatment. The stalks were placed in a 6-cm-diameter Petri dish with filter paper. After natural air-drying in the shade, uniform and healthy test insects were introduced, with 10 insects for each treatment and 4 replicates for each treatment. In addition, a blank control was set up. The number of dead and live insects was investigated 72 hours later. The corrected mortality rate was calculated using the Abbott's formula, and the DPS data processing software was used for statistical analysis to calculate the toxicities (LC50 values) of the single test pesticides and the mixtures under the test ratios.
(§5) The test conditions, the preparation of the pesticide solution and the evaluation method were the same as those in Example 1.

[4] = system: 2nd-instar larvae of Mythimna separata; assay: Joint toxicity of I-72 + beta-cyfluthrin, Example 41, Table 41; settings: A = compound I-72, B = beta-cyfluthrin; corn leaf dipping; 72 hours
Procedure: Test target: 2nd-instar larvae of Mythimna separata.
as §1
as §4, with “first,” for “first, tender”, “leaves” for “stems”
as §3, with “72” for “96”

[5] = system: adult Phyllotreta vittuta Fabr.; assay: Joint toxicity of I-72 + deltamethrin, Example 45, Table 45; settings: 72 h
Procedure: Test target: adult Phyllotreta vittuta Fabr.
as §1
Experimental method: first, uniform and consistent potted cabbage seedlings were selected. Then, uniform spraying was performed with the pesticide solution in the order from low dosage to high dosage according to the experimental design. After air-drying in the shade, adult flea beetles were transferred onto the treated cabbage seedlings, and then glass covers were put on them, with about 30-40 adult flea beetles on each seedling and 3 replicates for each treatment. In addition, a blank control was set up.
as §3, with “72” for “96”

[6] = system: Nilaparvata lugens (Stal) nymphs; assay: Joint toxicity of I-72 + etofenprox, Example 44, Table 44; settings: in Oryza sativa, 72 h
Procedure: Test target: Nilaparvata lugens (Stal) nymphs, a sensitive strain reared indoors.
as §1
Experimental method: the activity of the mixture against the Nilaparvata lugens (Stal) nymphs was determined by adopting the potted-seedling spraying method. First, rice seedlings were planted in culture pots. Uniform spraying was performed with the pesticide solution in the order from low dosage to high dosage according to the experimental design, with 2 mL for each seedling. Then, Nilaparvata lugens nymphs of uniform size were transferred onto the rice seedlings, with 3 replicates for each treatment. In addition, a blank control was set up.
as §3, with “72” for “96”

[7] = system: adult Tetranychus cinnabarinus (Boisduval); assay: Joint toxicity of I-72 + fenpropathrin, Example 39, Table 39; settings: 72 h
Procedure: Test target: adult Tetranychus cinnabarinus (Boisduval), a sensitive strain reared indoors.
as §1
Experimental method: the activity of the mixture against the adult Tetranychus cinnabarinus (Boisduval) was determined by adopting the potted-seedling spraying method. First, the adult Tetranychus cinnabarinus of uniform size were transferred onto the leaves of kidney bean seedlings at the stage when the first pair of true leaves was fully expanded. After the adult mites had stabilized, the base number was counted. Then, the uniform spraying was performed with the pesticide solution in the order from low to high dose according to the experimental design, with 1.5 mL for each seedling and 3 replicates for each treatment. […]
as §3, with “needed.” for “needed. The number of dead and live insects was investigated 96 hours later.”, “effect,” for “effect (the same”, “1.” for “1).”

[8] = system: second-instar larvae of Meloidogyne incognita; assay: In vitro joint toxicity of I-72 + fluopyram, 24-well plate, Example 32, Table 32; settings: 48 h
Procedure: Test target: second-instar larvae of Meloidogyne incognita, a sensitive strain reared in a greenhouse.
as §1
Experimental method: the prepared pesticide solutions were added to a 24-well plate in the order from low dosage to high dosage according to the experimental design. In each well of each treatment, 50 nematodes were placed. Each drug had 5 concentrations set, with 3 replicates. After the treatment, the 24-well plate was placed in a constant temperature incubator at 25° C. In addition, a blank control group was set up. The number of dead and live insects was investigated 48 hours later. […] Then, the co-toxicity coefficient of each ratio was calculated using the Sun Y-P method to evaluate the mixing effect (the same as in Example 1).

[9] = system: mixed aphids of Myzus persicae (Sulzer); assay: Joint toxicity of I-72 + matrine, Example 34, Table 34; settings: in Brassica oleracea, 48 h
Description: Test subject: mixed aphids of Myzus persicae (Sulzer), a sensitive strain reared indoors.
Experimental method: the spraying method on leaves with aphids was adopted. Cabbage leaves with a certain number of Myzus persicae (Sulzer) were taken. The prepared pesticide solutions were evenly sprayed on both the front and back sides of the leaves in the order from low concentration to high concentration according to the experimental design. Then, the leaves were placed in a 6-cm-diameter Petri dish with filter paper. After natural air-drying in the shade, they were placed in the observation room. The experiment had 3 replicates set, and in addition, a blank control was set up. The number of dead and live insects was investigated 48 hours later. The corrected mortality rate was calculated using the Abbott's formula, and the DPS data processing software was used for statistical analysis to calculate the toxicities (LC50 values) of the single test pesticides and the mixtures under the test ratios.
as §5

[10] = system: adult Phyllotreta striolata (Walker); assay: Joint toxicity of I-72 + rotenone, insect dipping, Example 35, Table 35
Description: Test target: adult Phyllotreta striolata (Walker), a strain reared indoors.
Experimental method: the dipping method was adopted. Adult flea beetles of uniform size were put into an insect-dipping cage and dipped for 10 s in the order from low dosage to high dosage according to the experimental design, with 30 beetles for each treatment. The beetles were placed in a 9-cm-diameter Petri dish with filter paper, with 3 replicates for each treatment. In addition, a blank control was set up. The treated test materials were placed in an observation room, and the temperature, humidity and illumination of the observation room could be adjusted as needed.
as §5

[11] = system: Aphis gossypii Glover nymphs; assay: Joint toxicity of I-72 + spiropidion, Example 28, Table 28; settings: A = compound I-72, B = spiropidion; cotton leaf spraying; 48 hours
Procedure: Test target: Aphis gossypii Glover nymphs, a sensitive strain reared indoors.
as §1
as §2, with “uniform” for “neat”, “Aphis gossypii” for “Bemisia tabaci (Gennadius) nymphs”, “selected,” for “selected and made into leaf disks,”, “30-40” for “20”, “leaf.” for “leaf disk.”
as §3, with “48” for “96”

[12] = system: 2nd-instar larvae of Plutella xylostella; assay: Joint toxicity of I-72 + spiropidion, Example 31, Table 31; settings: A = compound I-72, B = spiropidion; cabbage leaf dipping; 72 hours
Procedure: Test target: 2nd-instar larvae of Plutella xylostella.
as §1
as §4, with “cabbage leaves” for “tender corn stems”
as §3, with “72” for “96”

[13] = system: adult Tetranychus urticae Koch; assay: Joint toxicity of I-72 + spirobudifen, Example 29, Table 29; settings: 72 h
Procedure: as §1
In addition, a blank control was set up.
The treated test materials were placed in an observation room, and the temperature, humidity and illumination of the observation room could be adjusted as needed.

[14] = system: Unaspis yanonensis Kuwana nymphs; assay: whole plant or invertebrate; settings: foliar, 120 h
Procedure: Test target: Unaspis yanonensis Kuwana nymphs.
as §1
Experimental method: the activity of the mixture against Unaspis yanonensis Kuwana nymphs on citrus was determined by adopting the dipping method. First, the collected citrus leaves with Unaspis yanonensis Kuwana nymphs were treated with the pesticide solution in the order from low dosage to high dosage according to the experimental design. After air-drying, the petioles were kept moist with degreased cotton, and then the leaves were placed in a Petri dish, with 3 replicates for each treatment. In addition, a blank control was set up.
The treated test materials were placed in an observation room, and the temperature, humidity and illumination of the observation room could be adjusted as needed. The number of dead and live insects was investigated 120 hours later.

[15] = system: Thrips flavus Schrank nymphs; assay: Joint toxicity of I-72 + spirotetramat, Example 26, Table 26; settings: in Solanum melongena, 48 h
Procedure: Test target: Thrips flavus Schrank nymphs.
as §1
Experimental method: first, eggplant seedlings with Thrips flavus Schrank were selected, and the base number was counted. Then, uniform spraying was performed with the pesticide solution in the order from low to high doses according to the experimental design, with 2 mL for each seedling and 3 replicates for each treatment. In addition, a blank control was set up.
as §3, with “48” for “96”

Compound `Cc1c(COC(=O)[C@@H]2[C@H](/C=C(\Cl)C(F)(F)F)C2(C)C)cccc1-c1ccccc1` (racemic) [bifenthrin] has an LC50 [1] of 62.4 µg/mL.
With `CC1(C)[C@H](C(=O)O[C@H](C#N)c2cccc(Oc3ccccc3)c2)[C@@H]1/C=C(\Cl)C(F)(F)F` (racemic) [lambda-cyhalothrin] the LC50 [2] was 1.83 µg/mL.
`C/C=C(\C)C(=O)O[C@H]1C[C@@H](OC(C)=O)[C@@]2(C(=O)OC)CO[C@H]3[C@@H](O)[C@@](C)([C@]45O[C@@]4(C)[C@H]4C[C@@H]5O[C@@H]5OC=C[C@@]54O)[C@H]4[C@]1(CO[C@]4(O)C(=O)OC)[C@@H]32` [azadirachtin] was tested, and the LC50 [3] was 22.5 µg/mL.
With `CC1(C)C(C=C(Cl)Cl)C1C(=O)OC(C#N)c1ccc(F)c(Oc2ccccc2)c1` (stereo not drawn) [beta-cyfluthrin] the LC50 [4] was 1.0438 µg/mL.
With `CC1(C)[C@H](C(=O)O[C@H](C#N)c2cccc(Oc3ccccc3)c2)[C@@H]1C=C(Br)Br` [deltamethrin] the LC50 [5] was 6.76 µg/mL.
`CCOc1ccc(C(C)(C)COCc2cccc(Oc3ccccc3)c2)cc1` [etofenprox] was tested, and the LC50 [6] was 25.4 µg/mL.
Compound `CC1(C)C(C(=O)OC(C#N)c2cccc(Oc3ccccc3)c2)C1(C)C` (stereo not drawn) [fenpropathrin] has an LC50 [7] of 5.52 µg/mL.
`O=C(NCCc1ncc(C(F)(F)F)cc1Cl)c1ccccc1C(F)(F)F` [fluopyram] was tested, and the LC50 [8] was 0.609 µg/mL.
Compound `O=C1CCC[C@@H]2[C@H]3CCCN4CCC[C@@H](CN12)[C@@H]34` [matrine] has an LC50 [9] of 3.24 µg/mL.
Work on `C=C(C)[C@H]1Cc2c(ccc3c2O[C@@H]2COc4cc(OC)c(OC)cc4[C@@H]2C3=O)O1` [rotenone] yielded an LC50 [10] of 19.5 µg/mL.
Work on `CCOC(=O)OC1=C(c2c(C)cc(Cl)cc2C)C(=O)N(C)C12CCN(OC)CC2` [spiropidion] yielded an LC50 [11] of 4.8686 µg/mL and an LC50 [12] of 631.4873 µg/mL.
For `CCOC(=O)OC1=C(c2cc(C)ccc2C)C(=O)N[C@]12CC[C@@H](OC)CC2` [spirotetramat], the LC50 [13] was 8.2 µg/mL, the LC50 [14] was 8.91 µg/mL (≈ 23.9 µM) and the LC50 [15] was 12.3 µg/mL.
